Reference: patent US20240051936A1, “ISOINDOLINONE COMPOUNDS” (Monte Rosa Therapeutics, Inc., priority 2021, published 2024)
Like-named read-outs stand apart in the source and are kept apart here.

Key:
[1] = biological target: GSPT1 (Homo sapiens (Human), UniProt P15170+Q96SW2); assay: Immunofluorescence assay for GSPT1 degradation in CAL-Si cells; assay type: cell-based; details: CAL-Si cells
Description: The compounds were tested in an immunofluorescence assay for their activity to bind to degrade GSPT1. CAL-Si cells were purchased from DSMZ (cat. Number ACC302), sub-cultured in 90% Dulbecco's MEM (4.5 g/L glucose, Gibco 11965)+10% heat inactivated FBS (BioConcept, 2-01F136I) and incubated at 37° C., 5% CO2. For the assay, imaging microtiterplate Cell Carrier 96 Ultra (Perkin Elmer 6055302) were pre-coated with Fibronectin (Sigma F085, 30 μl at 0.2 μg/ml) in PBS (100 μl, Gibco 14190) for 45 min at room temperature, rinsed with PBS and CAL-Si cells (30K cells/well) were plated and let to adhere overnight. Cells were treated with compounds typically using a serial dilution ranging from 30 μM to 0.1 nM for 6 hours. Compounds were stored at 10 mM DMSO stocks. Vehicle (DMSO), positive (CC-885, 10 μM) and rescue controls (positive control plus 0.2 μM bortezomib) were also included at this stage. Cells were subsequently rinsed with PBS and fixed in 10% Formalin solution (50 μl, Sigma HT5011)) for 20 mins at room temperature. Following three consecutive PBS washes (100 μl), cells were permeabilized in 0.1% Triton X-100 in PBS (Sigma 93443, 50 μl) for 15 mins at room temperature. Following three further PBS washes, 50 μl blocking buffer (1% BSA, Sigma A4503, in PBS) was added for 45 min for signal-to-noise reduction.
Primary antibody (human GSPT1, Sigma HPA052488) was diluted in blocking buffer (dil.1/300, 35 μl/well) and incubated with the cells overnight at 4° C. After three PBS washes, Alexa-fluor 488 coupled secondary antibodies (Invitrogen, A32731, dil.1/1000), Alexa-fluor 647-Phalloïdin (Invitrogen, A22287, dil.1/200) and DAPI (Thermo, #62248, dil.1/1000) were diluted in blocking buffer and incubated with the samples for 2 hours at room temperature. After three final PBS washes, samples were conserved in 100 μl PBS in the dark, until measurement. Image acquisition was performed on the Operetta High-Content Imager (Perkin-Elmer). Fluorescence intensity of Alexa-Fluor 488 (GSPT1), Alexa-Fluor 647 (Actin) and DAPI (Nucleus) were measured. For the determination of GSPT1 DC50 values, a custom algorithm implemented in the PerkinElmer image analysis software Harmony-Acapella® was developed. After user-defined setting of adjustment parameters, the analysis was run identically without human intervention for all image fields. DAPI staining of the nuclei was used to determine the location of cells using standard nuclei detection modules. Segmentation artifacts were removed by threshold-based filters for area, roundness and intensity. The outline of the cells was determined analogously from the sum of the normalized, smoothed DAPI and Actin channel, starting from each nucleus. The Alexa-Fluor 488 (GSPT1) signal intensity in each cell was finally measured, in order to obtain a Mean intensity per cell. GSPT1 degradation (DC50) was calculated after normalization to controls and data import in CDD vault Database, using non-linear regression.

[2] = biological target: Full length wild-type cereblon CRBN (Homo sapiens (Human), UniProt Q96SW2); assay: Fluorescence polarization (FP) assay, cereblon binding
Chain of Full length wild-type cereblon CRBN (Q96SW2 whole entry): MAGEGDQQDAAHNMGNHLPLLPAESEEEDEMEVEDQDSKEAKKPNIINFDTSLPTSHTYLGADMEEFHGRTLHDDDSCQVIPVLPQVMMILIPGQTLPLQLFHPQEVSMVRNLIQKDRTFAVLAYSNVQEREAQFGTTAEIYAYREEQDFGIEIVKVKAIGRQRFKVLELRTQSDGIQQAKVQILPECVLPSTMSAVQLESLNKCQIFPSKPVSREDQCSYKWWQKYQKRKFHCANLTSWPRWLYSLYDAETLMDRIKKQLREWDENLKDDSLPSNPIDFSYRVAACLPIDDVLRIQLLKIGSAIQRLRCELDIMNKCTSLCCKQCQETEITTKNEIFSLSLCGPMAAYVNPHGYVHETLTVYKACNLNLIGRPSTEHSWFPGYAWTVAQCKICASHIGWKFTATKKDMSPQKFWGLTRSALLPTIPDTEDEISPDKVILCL
Description: Compound activity was monitored in a fluorescence polarization (FP) homogeneous assay using 1-[5-({2-[2-(2-{[2-(2,6-dioxopiperidin-3-yl)-1,3-dioxo-2,3-dihydro-1H-isoindol-4-yl]oxy}acetamido)ethoxy]ethyl}carbamoyl)pentyl]-3,3-dimethyl-2-[(1E,3E)-5-[(2E)-1,3,3-trimethyl-5-sulfo-2,3-dihydro-1H-indol-2-ylidene]penta-1,3-dien-1-yl]-3H-indol-1-ium-5-sulfonate as a fluorescent probe. Unless otherwise stated, all reagents were purchased from Sigma Aldrich. Enzymatic reactions were conducted in Perkin-Elmer Black 384 well ProxiPlate Plus (catalogue no. 6008269) in 10 sL total volume. Full length wild-type cereblon CRBN (80.0 nM, 10 sL) was incubated in assay buffer containing 20 mM HEPES (pH 8.0), […], 0.5 mM TCEP and 0.05% Tween 20 in the presence or absence of compound (300 nL). Inhibitors were stored as 10 mM DMSO stocks in an inert environment (low humidity, dark, low oxygen, room temperature) using the Storage Pod System.
Compounds and DMSO were dispensed using the Echo E5XX (Labcyte Inc. USA) to give concentrations from 300 to 0.937 or 3000 to 9.3 nM in a 12 data point curve. […] Following incubation at room temperature for 30 min, the assay was initiated by dispensing the probe to a final concentration of 5 nM (2.5 nL of a 20 μM stock) using the Echo E5XX. FP was measured after a period of 12 hours using a Pherastar plate reader (BMG Labtech, Germany) exciting at 590 nm and measuring the amount of parallel and perpendicular light at 675 nm. The FP signal was subsequently normalized to the no-compound control (i.e., DMSO). Analysis and IC50 values were derived using Dotmatics (Dotmatics UK) software.

[3] = compounds with code A, read-out: DC50 value code
[4] = treated 6 hours, read-out: Code, activity for GSPT1 degradation (DC50)
[5] = cereblon binding, bound, read-out: IC50 value
[6] = wild-type CRBN 80.0 nM, probe 5 nM, FP measured after 12 hours, read-out: rFP IC50

Chain of GSPT1 (P15170 whole entry): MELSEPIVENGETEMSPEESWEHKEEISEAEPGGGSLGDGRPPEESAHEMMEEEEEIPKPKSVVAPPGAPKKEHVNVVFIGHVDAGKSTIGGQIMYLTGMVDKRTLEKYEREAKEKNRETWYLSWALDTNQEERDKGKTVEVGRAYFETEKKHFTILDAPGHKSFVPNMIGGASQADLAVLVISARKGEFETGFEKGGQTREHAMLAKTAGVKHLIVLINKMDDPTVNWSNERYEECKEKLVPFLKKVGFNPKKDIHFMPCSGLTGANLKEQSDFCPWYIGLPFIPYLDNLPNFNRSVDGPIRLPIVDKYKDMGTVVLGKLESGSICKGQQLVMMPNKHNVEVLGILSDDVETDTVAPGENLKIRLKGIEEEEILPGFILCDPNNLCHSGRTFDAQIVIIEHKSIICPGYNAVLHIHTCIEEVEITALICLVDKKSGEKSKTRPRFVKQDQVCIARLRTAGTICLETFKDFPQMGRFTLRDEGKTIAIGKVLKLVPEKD
Chain of GSPT1 (Q96SW2 whole entry): as the sequence (Q96SW2 whole entry) above
Chain of GSPT1 (Q16531 whole entry partner): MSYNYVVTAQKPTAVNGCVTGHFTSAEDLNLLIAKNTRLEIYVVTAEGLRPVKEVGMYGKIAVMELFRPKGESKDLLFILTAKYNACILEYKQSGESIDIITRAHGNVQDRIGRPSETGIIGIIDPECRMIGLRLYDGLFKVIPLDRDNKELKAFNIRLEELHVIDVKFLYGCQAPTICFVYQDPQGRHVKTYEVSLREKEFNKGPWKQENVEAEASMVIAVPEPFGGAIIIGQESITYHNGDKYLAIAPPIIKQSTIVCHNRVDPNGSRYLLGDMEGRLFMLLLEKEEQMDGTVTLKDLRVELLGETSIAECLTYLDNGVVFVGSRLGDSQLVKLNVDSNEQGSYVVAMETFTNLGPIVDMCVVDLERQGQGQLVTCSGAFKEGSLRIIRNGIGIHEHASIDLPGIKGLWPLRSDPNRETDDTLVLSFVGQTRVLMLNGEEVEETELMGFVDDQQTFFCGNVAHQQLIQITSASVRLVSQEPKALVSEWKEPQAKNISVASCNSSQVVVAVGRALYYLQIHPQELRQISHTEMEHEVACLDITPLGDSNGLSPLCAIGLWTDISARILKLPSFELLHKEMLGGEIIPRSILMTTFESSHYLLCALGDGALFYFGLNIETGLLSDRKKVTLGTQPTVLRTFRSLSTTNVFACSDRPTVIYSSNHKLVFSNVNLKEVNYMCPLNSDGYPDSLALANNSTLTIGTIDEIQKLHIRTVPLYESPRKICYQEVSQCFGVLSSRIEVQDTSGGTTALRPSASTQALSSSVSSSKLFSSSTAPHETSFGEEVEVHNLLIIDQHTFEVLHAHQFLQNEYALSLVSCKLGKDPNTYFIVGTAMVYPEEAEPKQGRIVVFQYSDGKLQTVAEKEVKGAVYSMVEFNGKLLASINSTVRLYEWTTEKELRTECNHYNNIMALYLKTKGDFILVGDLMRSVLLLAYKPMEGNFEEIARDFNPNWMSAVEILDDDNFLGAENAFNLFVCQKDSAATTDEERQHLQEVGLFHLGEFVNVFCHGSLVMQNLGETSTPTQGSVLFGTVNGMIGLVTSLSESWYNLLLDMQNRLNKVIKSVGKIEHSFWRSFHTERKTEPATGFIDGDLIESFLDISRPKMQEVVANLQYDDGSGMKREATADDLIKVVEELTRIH

Structure (SMILES)	DC50 [1, 3] [µM]	DC50 [1, 4] [µM]	IC50 [2, 5] [µM]	IC50 [2, 6] [µM]
O=C1CCC(N2Cc3c(F)cc(COC(=O)Nc4ccc(-c5ccccn5)cc4)cc3C2=O)C(=O)N1 (stereo not shown) [Compound 11, (2-(2,6-dioxopiperidin-3-yl)-7-fluoro-3-oxoisoindolin-5-yl)methyl (4-(pyridin-2-yl)phenyl)carbamate]	< 0.03	< 0.03	< 0.6	≤ 0.6
O=C1CCC(N2Cc3c(F)cc(COC(=O)Nc4ccc(-c5ccccc5)nc4)cc3C2=O)C(=O)N1 (stereo not shown) [Compound 8, (2-(2,6-dioxopiperidin-3-yl)-7-fluoro-3-oxoisoindolin-5-yl)methyl(6-phenylpyridin-3-yl)carbamate]	< 0.03	< 0.03	–	> 1.9
COc1cc(COC(=O)Nc2cccc(OC(F)(F)F)c2)cc2c1CN(C1CCC(=O)NC1=O)C2=O (stereo not shown) [Compound 55, (2-(2,6-dioxopiperidin-3-yl)-7-methoxy-3-oxoisoindolin-5-yl) methyl (3-(trifluoromethoxy)phenyl)carbamate]	< 0.03	< 0.03	–	0.6 to 1.2
COc1cc(COC(=O)Nc2ccc3c(c2)OCC3(C)C)cc2c1CN(C1CCC(=O)NC1=O)C2=O (stereo not shown) [Compound 37, (2-(2,6-dioxopiperidin-3-yl)-7-methoxy-3-oxoisoindolin-5-yl) methyl(3,3-dimethyl-2,3-dihydrobenzofuran-6-yl)carbamate]	< 0.03	< 0.03	< 1.2	–
Cc1ccc(NC(=O)OCc2cc(Br)c3c(c2)C(=O)N(C2CCC(=O)NC2=O)C3)cc1Cl (stereo not shown) [Compound 1, (7-bromo-2-(2,6-dioxopiperidin-3-yl)-3-oxoisoindolin-5-yl)methyl(3-chloro-4-methylphenyl)carbamate]	–	0.03 to 0.3	–	> 1.9
COc1cc(COC(=O)Nc2cnc(-c3ccccc3)c(C)c2)cc2c1CN(C1CCC(=O)NC1=O)C2=O (stereo not shown) [Compound 59, (2-(2,6-dioxopiperidin-3-yl)-7-methoxy-3-oxoisoindolin-5-yl)methyl(5-methyl-6-phenylpyridin-3-yl)carbamate]	< 0.03	< 0.03	< 0.6	≤ 0.6
O=C1CCC(N2Cc3c(F)cc(COC(=O)Nc4cc(-c5ccccc5)ccn4)cc3C2=O)C(=O)N1 (stereo not shown) [Compound 24, (2-(2,6-dioxopiperidin-3-yl)-7-fluoro-3-oxoisoindolin-5-yl)methyl(4-phenylpyridin-2-yl)carbamate]	–	0.03 to 0.3	–	> 1.9
COc1cc(COC(=O)Nc2cc(F)cc(Cl)c2)cc2c1CN(C1CCC(=O)NC1=O)C2=O (stereo not shown) [Compound 50, (2-(2,6-dioxopiperidin-3-yl)-7-methoxy-3-oxoisoindolin-5-yl)methyl(3-chloro-5-fluorophenyl)carbamate]	< 0.03	< 0.03	< 0.6	0.6 to 1.2
Cc1cc(C)cc(NC(=O)OCc2cc(F)c3c(c2)C(=O)N(C2CCC(=O)NC2=O)C3)c1 (stereo not shown) [Compound 31, (2-(2,6-dioxopiperidin-3-yl)-7-fluoro-3-oxoisoindolin-5-yl)methyl (3,5-dimethylphenyl)carbamate]	–	0.03 to 0.3	–	> 1.9
COc1cc(COC(=O)Nc2ccc(N3CCCCC3C)nc2)cc2c1CN(C1CCC(=O)NC1=O)C2=O (stereo not shown) [Compound 38, (2-(2,6-dioxopiperidin-3-yl)-7-methoxy-3-oxoisoindolin-5-yl)methyl(6-(2-methylpiperidin-1-yl)pyridin-3-yl)carbamate]	< 0.03	< 0.03	< 0.6	≤ 0.6
COc1cc(COC(=O)Nc2ccc(C(C)(C)C)nc2)cc2c1CN(C1CCC(=O)NC1=O)C2=O (stereo not shown) [Compound 44, (2-(2,6-dioxopiperidin-3-yl)-7-methoxy-3-oxoisoindolin-5-yl)methyl (6-(tert-butyl)pyridin-3-yl)carbamate]	< 0.03	< 0.03	< 0.6	≤ 0.6
O=C1CCC(N2Cc3c(F)cc(COC(=O)Nc4cc(F)cc(OC(F)F)c4)cc3C2=O)C(=O)N1 (stereo not shown) [Compound 6, (2-(2,6-dioxopiperidin-3-yl)-7-fluoro-3-oxoisoindolin-5-yl)methyl(3-(difluoromethoxy)-5-fluorophenyl)carbamate]	–	0.03 to 0.3	–	> 1.9
COc1cc(COC(=O)Nc2ccc(C)c(OC(F)F)c2)cc2c1CN(C1CCC(=O)NC1=O)C2=O (stereo not shown) [Compound 48, (2-(2,6-dioxopiperidin-3-yl)-7-methoxy-3-oxoisoindolin-5-yl)methyl (3-(difluoromethoxy)-4-methylphenyl) carbamate]	–	0.03 to 0.3	< 0.6	1.2 to 1.9
O=C1CCC(N2Cc3c(F)cc(COC(=O)Nc4cccc(OC(F)(F)F)c4)cc3C2=O)C(=O)N1 (stereo not shown) [Compound 15, (2-(2,6-dioxopiperidin-3-yl)-7-fluoro-3-oxoisoindolin-5-yl)methyl (3-(trifluoromethoxy)phenyl)carbamate]	–	0.03 to 0.3	–	> 1.9
O=C1CCC(N2Cc3c(F)cc(COC(=O)Nc4cccc(OC(F)F)c4)cc3C2=O)C(=O)N1 (stereo not shown) [Compound 26, (2-(2,6-dioxopiperidin-3-yl)-7-fluoro-3-oxoisoindolin-5-yl)methyl(3-(difluoromethoxy)phenyl)carbamate]	–	0.03 to 0.3	< 0.6	1.2 to 1.9
Cc1ccc(NC(=O)OCc2cc(F)c3c(c2)C(=O)N(C2CCC(=O)NC2=O)C3)cc1Cl (stereo not shown) [Compound 3, (2-(2,6-dioxopiperidin-3-yl)-7-fluoro-3-oxoisoindolin-5-yl)methyl(3-chloro-4-methylphenyl)carbamate]	–	0.03 to 0.3	–	> 1.9
COc1cc(COC(=O)Nc2cc(-c3ccccc3)ccn2)cc2c1CN(C1CCC(=O)NC1=O)C2=O (stereo not shown) [Compound 56, (2-(2,6-dioxopiperidin-3-yl)-7-methoxy-3-oxoisoindolin-5-yl)methyl (4-phenylpyridin-2-yl)carbamate]	< 0.03	< 0.03	< 0.6	≤ 0.6
COc1cc(COC(=O)Nc2cc(F)cc(OC(F)(F)F)c2)cc2c1CN(C1CCC(=O)NC1=O)C2=O (stereo not shown) [Compound 41, (2-(2,6-dioxopiperidin-3-yl)-7-methoxy-3-oxoisoindolin-5-yl)methyl (3-fluoro-5-(trifluoromethoxy)phenyl) carbamate]	–	0.03 to 0.3	< 0.6	1.2 to 1.9
COc1cc(COC(=O)Nc2ccc(C)c(Cl)c2)cc2c1CN(C1CCC(=O)NC1=O)C2=O (stereo not shown) [Compound 5, (2-(2,6-dioxopiperidin-3-yl)-7-methoxy-3-oxoisoindolin-5-yl)methyl(3-chloro-4-methylphenyl)carbamate]	< 0.03	< 0.03	< 0.6	0.6 to 1.2
